Data taken from patent publication US7491819B1 (priority 2004, dated 2009).

target: T1, HIV-integrase (Human immunodeficiency virus type 1 group M subtype B, UniProt P12497); experiment: HIV-Integrase Inhibition Activity (SPA bead strand-transfer assay); type: biochemical; conditions: Table 1; read-out: Activity (HIV-integrase inhibition, IC50 class)
T1 construct: Recombinant integrase (0.26 ng) was incubated with the beads
Procedure: HIV-Integrase Inhibition Activity. To evaluate in-vitro activity against HIV-integrase, 5 pmole of biotin labeled substrate DNA was bound to 100 μg of Streptavidin coated PVT SPA beads (Amersham Pharmacia Biotech). Recombinant integrase (0.26 ng) was incubated with the beads for 90 min at 37° C. Unbound enzyme was removed by washing the complex followed by addition of inhibitors and 0.1 fmol of P33 labeled target DNA. The reaction was stopped by adding EDTA to a final concentration of 10 mM. Samples were counted in TopCountNXT (Packard) and the CPM was used as a measure of integration. The reaction condition was as described in A. Engelman and R. Craigie, J. Virol 69, 5908-5911 (1995). The sequences of substrate and target DNA were described in Nucleic Acid Research 22, 1121-1122 (1994).

Compound | IC50
CN(CCO)C(=O)c1ncn(-c2cc(F)ccc2CNC(=O)c2nc3n(c(=O)c2O)CCOC3(C)C)n1 [Example 67, Pyrimido[2,1-c][1,4]oxazine-2-carboxamide, N-[[4-fluoro-2-[3-[[(2-hydroxyethyl)methylamino]carbonyl]-1H-1,2,4-triazol-1-yl]phenyl]methyl]-4,6,7,9-tetrahydro-3-hydroxy-9,9-dimethyl-4-oxo-] | 2 to 100 nM
CC1(C)OCCn2c1nc(C(=O)NCc1ccc(F)cc1-n1cnc(C(=O)NS(=O)(=O)c3ccc(F)cc3)n1)c(O)c2=O [Example 68, Pyrimido[2,1-c][1,4]oxazine-2-carboxamide, N-[[4-fluoro-2-[3-[[[(4-fluorophenyl)sulfonyl]amino]carbonyl]-1H-1,2,4-triazol-1-yl]phenyl]methyl]-4,6,7,9-tetrahydro-3-hydroxy-9,9-dimethyl-4-oxo-] | 2 to 100 nM
CN1CCN(C(=O)c2ncn(-c3cc(F)ccc3CNC(=O)c3nc4n(c(=O)c3O)CCOC4(C)C)n2)CC1 [Example 69, Pyrimido[2,1-c][1,4]oxazine-2-carboxamide, N-[[4-fluoro-2-[3-[(4-methyl-1-piperazinyl)carbonyl]-1H-1,2,4-triazol-1-yl]phenyl]methyl]-4,6,7,9-tetrahydro-3-hydroxy-9,9-dimethyl-4-oxo-] | 2 to 100 nM
CN(C)CCNC(=O)c1ncn(-c2cc(F)ccc2CNC(=O)c2nc3n(c(=O)c2O)CCOC3(C)C)n1 [Example 70, Pyrimido[2,1-c][1,4]oxazine-2-carboxamide, N-[[2-[3-[[[2-(dimethylamino)ethyl]amino]carbonyl]-1H-1,2,4-triazol-1-yl]-4-fluorophenyl]methyl]-4,6,7,9-tetrahydro-3-hydroxy-9,9-dimethyl-4-oxo-] | 2 to 100 nM
CN(C)CCN(C)C(=O)c1ncn(-c2cc(F)ccc2CNC(=O)c2nc3n(c(=O)c2O)CCOC3(C)C)n1 [Example 71, Pyrimido[2,1-c][1,4]oxazine-2-carboxamide, N-[[2-[3-[[[2-(dimethylamino)ethyl]methylamino]carbonyl]-1H-1,2,4-triazol-1-yl]-4-fluorophenyl]methyl]-4,6,7,9-tetrahydro-3-hydroxy-9,9-dimethyl-4-oxo-] | 2 to 100 nM
CC1(C)OCCn2c1nc(C(=O)NCc1ccc(F)cc1-n1cnc(C(=O)NCCO)n1)c(O)c2=O [Example 72, Pyrimido[2,1-c][1,4]oxazine-2-carboxamide, N-[[4-fluoro-2-[3-[[(2-hydroxyethyl)amino]carbonyl]-1H-1,2,4-triazol-1-yl]phenyl]methyl]-4,6,7,9-tetrahydro-3-hydroxy-9,9-dimethyl-4-oxo-] | 2 to 100 nM
CC1(C)OCCn2c1nc(C(=O)NCc1ccc(F)cc1I)c(O)c2=O [Example 73, Pyrimido[2,1-c][1,4]oxazine-2-carboxamide, N-[(4-fluoro-2-iodophenyl)methyl]-4,6,7,9-tetrahydro-3-hydroxy-9,9-dimethyl-4-oxo-] | 2 to 100 nM
CC1(C)OCCn2c1nc(C(=O)NCc1ccc(F)cc1-c1ccccc1)c(O)c2=O [Example 74, Pyrimido[2,1-c][1,4]oxazine-2-carboxamide, N-[(5-fluoro[1,1′-biphenyl]-2-yl)methyl]-4,6,7,9-tetrahydro-3-hydroxy-9,9-dimethyl-4-oxo-] | 2 to 100 nM
CC1(C)OCCn2c1nc(C(=O)NCc1ccc(F)cc1-c1cccnc1)c(O)c2=O [Example 75, Pyrimido[2,1-c][1,4]oxazine-2-carboxamide, N-[[4-fluoro-2-(3-pyridinyl)phenyl]methyl]-4,6,7,9-tetrahydro-3-hydroxy-9,9-dimethyl-4-oxo-] | 2 to 100 nM
COc1ccc(-c2cc(F)ccc2CNC(=O)c2nc3n(c(=O)c2O)CCOC3(C)C)cn1 [Example 77, Pyrimido[2,1-c][1,4]oxazine-2-carboxamide, N-[[4-fluoro-2-(6-methoxy-3-pyridinyl)phenyl]methyl]-4,6,7,9-tetrahydro-3-hydroxy-9,9-dimethyl-4-oxo] | 2 to 100 nM
CC1(C)OCCn2c1nc(C(=O)NCc1ccc(F)cc1-c1ccc[nH]c1=O)c(O)c2=O [Example 78, Pyrimido[2,1-c][1,4]oxazine-2-carboxamide, N-[[2-(1,2-dihydro-2-oxo-3-pyridinyl)-4-fluorophenyl]methyl]-4,6,7,9-tetrahydro-3-hydroxy-9,9-dimethyl-4-oxo-] | 2 to 100 nM
CC1(C)OCCn2c1nc(C(=O)NCc1ccc(F)cc1-c1ccc(=O)[nH]c1)c(O)c2=O [Example 79, Pyrimido[2,1-c][1,4]oxazine-2-carboxamide, N-[[2-(1,6-dihydro-6-oxo-3-pyridinyl)-4-fluorophenyl]methyl]-4,6,7,9-tetrahydro-3-hydroxy-9,9-dim ethyl-4-oxo-] | 2 to 100 nM
CC1(C)OCCn2c1nc(C(=O)NCc1ccc(F)cc1-c1cccc(=O)[nH]1)c(O)c2=O [Example 80, Pyrimido[2,1-c][1,4]oxazine-2-carboxamide, N-[[2-(1,6-dihydro-6-oxo-2-pyridinyl)-4-fluorophenyl]methyl]-4,6,7,9-tetrahydro-3-hydroxy-9,9-dimethyl-4-oxo-] | 2 to 100 nM
Cc1ncn(-c2cc(F)ccc2CNC(=O)c2nc3n(c(=O)c2O)CCOC3(C)C)n1 [Example 81, Pyrimido[2,1-c][1,4]oxazine-2-carboxamide, N-[[4-fluoro-2-(3-methyl-1H-1,2,4-triazol-1-yl)phenyl]methyl]-4,6,7,9-tetrahydro-3-hydroxy-9,9-dimethyl-4-oxo-] | 2 to 100 nM
Cc1ncnn1-c1cc(F)ccc1CNC(=O)c1nc2n(c(=O)c1O)CCOC2(C)C [Example 82, Pyrimido[2,1-c][1,4]oxazine-2-carboxamide, N-[[4-fluoro-2-(5-methyl-1H-1,2,4-triazol-1-yl)phenyl]methyl]-4,6,7,9-tetrahydro-3-hydroxy-9,9-dimethyl-4-oxo-] | 2 to 100 nM
Cc1ncn(-c2ccc(CNC(=O)c3nc4n(c(=O)c3O)CCOC4(C)C)c(F)c2)n1 [Example 83, Pyrimido[2,1-c][1,4]oxazine-2-carboxamide, N-[[2-fluoro-4-(3-methyl-1H-1,2,4-triazol-1-yl)phenyl]methyl]-4,6,7,9-tetrahydro-3-hydroxy-9,9-dimethyl-4-oxo-] | > 1000 nM
CC1(C)OCCn2c1nc(C(=O)NCc1ccc(F)cc1-c1csnn1)c(O)c2=O [Example 84, Pyrimido[2,1-c][1,4]oxazine-2-carboxamide, N-[[4-fluoro-2-(1,2,3-thiadiazol-4-yl)phenyl]methyl]-4,6,7,9-tetrahydro-3-hydroxy-9,9-dimethyl-4-oxo-] | 2 to 100 nM
CC1(C)OCCn2c1nc(C(=O)NCc1ccc(F)cc1-c1ccn[nH]1)c(O)c2=O [Example 85, Pyrimido[2,1-c][1,4]oxazine-2-carboxamide, N-[[4-fluoro-2-(1H-pyrazol-5-yl)phenyl]methyl]-4,6,7,9-tetrahydro-3-hydroxy-9,9-dimethyl-4-oxo-] | 2 to 100 nM
Cc1cnc(-c2cc(F)ccc2CNC(=O)c2nc3n(c(=O)c2O)CCOC3(C)C)o1 [Example 86, Pyrimido[2,1-c][1,4]oxazine-2-carboxamide, N-[[4-fluoro-2-(5-methyl-2-oxazolyl)phenyl]methyl]-4,6,7,9-tetrahydro-3-hydroxy-9,9-dimethyl-4-oxo-] | 2 to 100 nM
CCNc1cc(F)ccc1CNC(=O)c1nc2n(c(=O)c1O)CCOC2(C)C [Example 87, Pyrimido[2,1-c][1,4]oxazine-2-carboxamide, N-[[2-(ethylamino)-4-fluorophenyl]methyl]-4,6,7,9-tetrahydro-3-hydroxy-9,9-dimethyl-4-oxo-] | 2 to 100 nM
C#Cc1cc(F)ccc1CNC(=O)c1nc2n(c(=O)c1O)CCOC2(C)C [Example 88, Pyrimido[2,1-c][1,4]oxazine-2-carboxamide, N-[(2-ethynyl-4-fluorophenyl)methyl]-4,6,7,9-tetrahydro-3-hydroxy-9,9-dimethyl-4-oxo-] | 2 to 100 nM
CC1(C)OCCn2c1nc(C(=O)NCc1ccc(F)cc1C#CCO)c(O)c2=O [Example 89, Pyrimido[2,1-c][1,4]oxazine-2-carboxamide, N-[[4-fluoro-2-(3-hydroxy-1-propynyl)phenyl]methyl]-4,6,7,9-tetrahydro-3-hydroxy-9,9-dimethyl-4-oxo-] | 2 to 100 nM
CC1(C)OCCn2c1nc(C(=O)NCc1ccc(F)cc1C#CCOS(C)(=O)=O)c(O)c2=O [Example 90, Pyrimido[2,1-c][1,4]oxazine-2-carboxamide, N-[[4-fluoro-2-[3-[(methylsulfonyl)oxy]-1-propynyl]phenyl]methyl]-4,6,7,9-tetrahydro-3-hydroxy-9,9-dimethyl-4-oxo-] | 2 to 100 nM
CN(C)CC#Cc1cc(F)ccc1CNC(=O)c1nc2n(c(=O)c1O)CCOC2(C)C [Example 91, Pyrimido[2,1-c][1,4]oxazine-2-carboxamide, N-[[2-[3-(dimethylamino)-1-propynyl]-4-fluorophenyl]methyl]-4,6,7,9-tetrahydro-3-hydroxy-9,9-dimethyl-4-oxo-] | 2 to 100 nM
CC1(C)OCCn2c1nc(C(=O)NCc1ccc(F)cc1C#CCS(C)(=O)=O)c(O)c2=O [Example 92, Pyrimido[2,1-c][1,4]oxazine-2-carboxamide, N-[[4-fluoro-2-[3-(methylsulfonyl)-1-propynyl]phenyl]methyl]-4,6,7,9-tetrahydro-3-hydroxy-9,9-dimethyl-4-oxo-] | 2 to 100 nM
CC1(C)OCCn2c1nc(C(=O)NCc1ccc(F)cc1C#CCN1CCCCS1(=O)=O)c(O)c2=O [Example 93, Pyrimido[2,1-c][1,4]oxazine-2-carboxamide, N-[[4-fluoro-2-[3-(tetrahydro-1,1-dioxido-2H-1,2-thiazin-2-yl)-1-propynyl]phenyl]methyl]-4,6,7,9-tetrahydro-3-hydroxy-9,9-dimethyl-4-oxo-] | 2 to 100 nM
CC1(C)OCCn2c1nc(C(=O)NCc1cccc3c1NC(=O)C3)c(O)c2=O [Example 94] | 2 to 100 nM
